Patent publication US9340590B2 (priority 2011, dated 2016)
Where two headings read alike, the source gives them in different places. Positions of bridges follow the written chain, without caps; N, C: chain ends. Residues, ends and D or L forms follow the SMILES beside them.

What was measured:
Assay in all cases: cell-based
hNav1.3 = hNav1.3 (Homo sapiens, UniProt Q9NY46); conditions: IonWorks Quattro; clamped to −110 mV, depolarized to −10 mV, 5 min after compound; n=2; read-out: IWQ Use Nav1.3
hNav1.5 = hNav1.5 (Homo sapiens, UniProt Q14524); conditions: IonWorks Quattro; clamped to −110 mV, depolarized to −10 mV, 5 min after compound; n=2; read-out: IWQ Use Nav1.5
hNav1.7 [1] = target: T1, hNav1.7 (Homo sapiens, UniProt Q15858); conditions: Nav1.7 Use IC50
hNav1.7 [2] = target: T1, hNav1.7; format: cell-based
[3] = IonWorks Quattro, clamped to −110 mV, depolarized to −10 mV, 5 min after compound, n=2, read-out: IWQ Use Nav1.7

T1 sequence (Q15858 whole entry, looked up): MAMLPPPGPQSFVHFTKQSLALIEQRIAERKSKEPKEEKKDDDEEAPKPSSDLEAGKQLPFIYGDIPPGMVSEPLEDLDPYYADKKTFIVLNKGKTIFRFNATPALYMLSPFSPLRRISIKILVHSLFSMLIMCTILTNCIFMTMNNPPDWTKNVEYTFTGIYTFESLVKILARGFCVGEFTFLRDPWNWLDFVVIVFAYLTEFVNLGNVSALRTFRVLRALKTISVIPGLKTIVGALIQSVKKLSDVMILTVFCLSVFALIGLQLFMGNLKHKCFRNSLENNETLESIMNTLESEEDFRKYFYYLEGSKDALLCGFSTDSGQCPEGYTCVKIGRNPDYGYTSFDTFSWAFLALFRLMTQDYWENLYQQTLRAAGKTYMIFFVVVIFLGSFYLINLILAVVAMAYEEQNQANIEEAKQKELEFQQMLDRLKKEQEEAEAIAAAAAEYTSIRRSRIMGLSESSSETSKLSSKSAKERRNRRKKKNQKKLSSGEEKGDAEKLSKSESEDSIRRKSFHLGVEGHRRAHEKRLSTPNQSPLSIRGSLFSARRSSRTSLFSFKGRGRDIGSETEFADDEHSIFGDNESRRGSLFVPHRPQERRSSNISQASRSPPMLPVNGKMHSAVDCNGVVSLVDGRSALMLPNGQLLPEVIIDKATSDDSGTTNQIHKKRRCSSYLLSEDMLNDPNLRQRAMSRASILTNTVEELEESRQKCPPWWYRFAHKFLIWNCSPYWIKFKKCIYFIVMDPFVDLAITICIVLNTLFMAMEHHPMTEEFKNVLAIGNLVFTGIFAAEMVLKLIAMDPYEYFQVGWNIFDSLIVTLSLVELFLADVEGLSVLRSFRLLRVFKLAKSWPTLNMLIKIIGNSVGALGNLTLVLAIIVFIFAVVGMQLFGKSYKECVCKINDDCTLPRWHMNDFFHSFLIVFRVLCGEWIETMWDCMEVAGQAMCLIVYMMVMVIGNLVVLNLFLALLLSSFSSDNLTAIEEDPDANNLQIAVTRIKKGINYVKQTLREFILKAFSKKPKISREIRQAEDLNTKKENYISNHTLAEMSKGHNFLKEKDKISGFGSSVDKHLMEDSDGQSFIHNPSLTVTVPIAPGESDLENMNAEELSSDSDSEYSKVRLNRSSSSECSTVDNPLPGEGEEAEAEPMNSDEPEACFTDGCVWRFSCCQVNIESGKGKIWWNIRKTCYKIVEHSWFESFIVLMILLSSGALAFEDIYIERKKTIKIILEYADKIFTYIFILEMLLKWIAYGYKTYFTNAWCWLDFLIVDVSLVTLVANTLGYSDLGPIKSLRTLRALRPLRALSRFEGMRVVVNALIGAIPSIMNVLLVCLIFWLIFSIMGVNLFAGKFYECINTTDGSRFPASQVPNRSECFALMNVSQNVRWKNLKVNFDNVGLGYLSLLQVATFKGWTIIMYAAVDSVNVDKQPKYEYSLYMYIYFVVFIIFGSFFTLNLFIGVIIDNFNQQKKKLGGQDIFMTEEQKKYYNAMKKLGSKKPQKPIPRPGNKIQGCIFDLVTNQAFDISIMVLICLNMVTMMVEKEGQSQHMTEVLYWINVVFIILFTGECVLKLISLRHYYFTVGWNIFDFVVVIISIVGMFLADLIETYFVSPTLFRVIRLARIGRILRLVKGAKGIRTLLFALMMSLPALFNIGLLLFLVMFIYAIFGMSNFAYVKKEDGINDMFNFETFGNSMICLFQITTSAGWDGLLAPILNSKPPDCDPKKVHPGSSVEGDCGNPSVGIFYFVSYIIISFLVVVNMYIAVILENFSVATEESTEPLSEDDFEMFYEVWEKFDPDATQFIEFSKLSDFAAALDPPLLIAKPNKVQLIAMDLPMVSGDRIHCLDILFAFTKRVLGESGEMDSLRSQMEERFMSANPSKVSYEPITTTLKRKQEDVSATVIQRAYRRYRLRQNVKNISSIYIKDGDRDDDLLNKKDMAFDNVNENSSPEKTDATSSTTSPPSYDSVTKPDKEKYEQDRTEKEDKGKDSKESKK
Chain of hNav1.3 (Q9NY46 whole entry, looked up): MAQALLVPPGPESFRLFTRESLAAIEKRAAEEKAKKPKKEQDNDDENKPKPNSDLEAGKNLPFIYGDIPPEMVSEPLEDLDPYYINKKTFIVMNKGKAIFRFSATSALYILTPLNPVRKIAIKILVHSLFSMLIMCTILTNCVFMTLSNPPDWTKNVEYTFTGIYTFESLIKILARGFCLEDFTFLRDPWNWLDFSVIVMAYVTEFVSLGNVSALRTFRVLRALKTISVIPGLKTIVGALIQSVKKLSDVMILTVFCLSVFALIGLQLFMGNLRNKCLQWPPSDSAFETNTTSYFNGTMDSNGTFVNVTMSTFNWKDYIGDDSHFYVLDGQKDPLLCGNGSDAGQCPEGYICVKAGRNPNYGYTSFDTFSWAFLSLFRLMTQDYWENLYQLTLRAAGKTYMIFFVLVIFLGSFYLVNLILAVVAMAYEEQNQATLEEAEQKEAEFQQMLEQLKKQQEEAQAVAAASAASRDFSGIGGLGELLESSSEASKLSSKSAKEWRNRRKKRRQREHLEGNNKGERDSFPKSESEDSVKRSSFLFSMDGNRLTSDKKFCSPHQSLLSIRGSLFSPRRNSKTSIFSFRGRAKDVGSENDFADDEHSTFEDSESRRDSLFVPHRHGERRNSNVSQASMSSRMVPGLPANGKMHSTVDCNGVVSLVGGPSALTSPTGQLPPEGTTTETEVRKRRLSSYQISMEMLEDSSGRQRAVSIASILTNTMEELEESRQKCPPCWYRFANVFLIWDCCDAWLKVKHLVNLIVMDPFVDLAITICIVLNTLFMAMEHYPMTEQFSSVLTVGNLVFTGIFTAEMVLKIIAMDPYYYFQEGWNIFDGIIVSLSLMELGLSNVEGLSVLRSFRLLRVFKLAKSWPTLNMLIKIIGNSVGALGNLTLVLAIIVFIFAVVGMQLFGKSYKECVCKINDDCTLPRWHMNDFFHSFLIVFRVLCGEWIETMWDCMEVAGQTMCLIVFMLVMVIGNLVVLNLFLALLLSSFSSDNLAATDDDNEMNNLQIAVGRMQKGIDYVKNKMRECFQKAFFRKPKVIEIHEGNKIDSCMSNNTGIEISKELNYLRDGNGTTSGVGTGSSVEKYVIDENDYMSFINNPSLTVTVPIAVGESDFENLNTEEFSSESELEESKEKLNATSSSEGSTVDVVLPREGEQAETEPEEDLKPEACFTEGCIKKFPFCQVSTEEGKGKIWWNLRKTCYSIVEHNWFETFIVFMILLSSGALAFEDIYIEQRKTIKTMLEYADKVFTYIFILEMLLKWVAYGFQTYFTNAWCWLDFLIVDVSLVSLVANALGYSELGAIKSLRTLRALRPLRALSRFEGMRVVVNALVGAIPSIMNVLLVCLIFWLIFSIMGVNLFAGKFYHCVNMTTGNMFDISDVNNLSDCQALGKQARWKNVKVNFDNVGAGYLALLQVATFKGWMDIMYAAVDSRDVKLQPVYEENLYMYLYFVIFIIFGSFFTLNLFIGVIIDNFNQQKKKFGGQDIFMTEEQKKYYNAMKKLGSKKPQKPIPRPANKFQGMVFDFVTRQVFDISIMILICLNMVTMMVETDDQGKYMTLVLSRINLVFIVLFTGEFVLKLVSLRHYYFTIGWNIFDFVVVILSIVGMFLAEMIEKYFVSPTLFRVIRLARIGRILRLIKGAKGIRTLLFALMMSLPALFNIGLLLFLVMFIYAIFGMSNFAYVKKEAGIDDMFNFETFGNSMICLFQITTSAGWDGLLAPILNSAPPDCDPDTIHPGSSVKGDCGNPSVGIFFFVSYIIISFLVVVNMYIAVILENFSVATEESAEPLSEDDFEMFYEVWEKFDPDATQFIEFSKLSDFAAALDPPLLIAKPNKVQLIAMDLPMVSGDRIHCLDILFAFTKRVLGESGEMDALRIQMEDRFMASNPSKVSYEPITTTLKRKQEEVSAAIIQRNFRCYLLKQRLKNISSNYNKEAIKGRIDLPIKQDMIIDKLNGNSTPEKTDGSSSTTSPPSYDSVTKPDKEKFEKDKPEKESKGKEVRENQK

SMILES	IC50 (hNav1.3) [nM]	IC50 (hNav1.5) [nM]	IC50 (hNav1.7 [1]) [nM]	IC50 (hNav1.7 [2]; [3]) [nM]	IC50 (hNav1.7 [2]) [nM]
CC[C@H](C)[C@@H]1NC(=O)CNC(=O)[C@H](CC(C)C)NC(=O)[C@@H](NC(=O)[C@@H](N)CC(=O)O)CSSC[C@@H]2NC(=O)[C@@H]3CSSC[C@@H](C(=O)N[C@@H](CCCCN)C(=O)N[C@@H](Cc4ccc(O)cc4)C(=O)N[C@H](C(=O)N[C@@H](Cc4ccccc4)C(N)=O)C(C)C)NC(=O)[C@H](Cc4c[nH]c5ccccc45)NC(=O)[C@H](CCCCN)NC(=O)[C@H](Cc4cnc[nH]4)NC(=O)[C@H]([C@@H](C)O)NC(=O)[C@H](CCCNC(=N)N)NC(=O)[C@H](CO)NC(=O)[C@H](CSSC[C@H](NC(=O)[C@H](CCCCN)NC(=O)[C@H](CCCNC(=N)N)NC(=O)[C@H](CCSC)NC1=O)C(=O)N[C@@H]([C@@H](C)CC)C(=O)N1CCC[C@H]1C(=O)N[C@@H](CC(=O)O)C(=O)N[C@@H](CC(N)=O)C(=O)N[C@@H](CC(=O)O)C(=O)N[C@@H](CCCCN)C(=O)N3)NC(=O)[C@H](C(C)C)NC(=O)[C@H](CC(C)C)NC(=O)[C@H](CC(N)=O)NC(=O)[C@@H]1CCCN1C(=O)[C@H](CCCNC(=N)N)NC2=O [SEQ ID NO: 88] (H-DCLGIMRKCIPDNDKCCRPNLVCSRTHKWCKYVF-NH2; disulfide 2-17, 9-23, 16-30)	620	6650	2	360	
CC[C@H](C)[C@@H]1NC(=O)[C@@H]2CSSC[C@@H]3NC(=O)[C@H](C(C)C)NC(=O)[C@H](CC(C)C)NC(=O)[C@H](CC(N)=O)NC(=O)[C@@H]4CCCN4C(=O)[C@H](CCCNC(=N)N)NC(=O)[C@H](CSSC[C@H](NC(=O)[C@@H](N)CC(=O)O)C(=O)N[C@@H](CC(C)C)C(=O)NCC(=O)N[C@@H](CC(C)C)C(=O)N[C@@H](CCSC)C(=O)N[C@@H](CCCNC(=N)N)C(=O)N[C@@H](CCCCN)C(=O)N2)NC(=O)[C@H](CSSC[C@@H](C(=O)N[C@@H](CCCCN)C(=O)N[C@@H](Cc2ccc(O)cc2)C(=O)N[C@H](C(=O)N[C@@H](Cc2ccccc2)C(N)=O)C(C)C)NC(=O)[C@H](Cc2c[nH]c4ccccc24)NC(=O)[C@H](CCCCN)NC(=O)[C@H](Cc2cnc[nH]2)NC(=O)[C@H]([C@@H](C)O)NC(=O)[C@H](CCCNC(=N)N)NC(=O)[C@H](CO)NC3=O)NC(=O)[C@H](CCCCN)NC(=O)[C@H](CC(=O)O)NC(=O)[C@H](CC(N)=O)NC(=O)[C@H](CC(=O)O)NC(=O)[C@@H]2CCCN2C1=O [SEQ ID NO: 267] (H-DCLGLMRKCIPDNDKCCRPNLVCSRTHKWCKYVF-NH2; disulfide 2-17, 9-23, 16-30)	300	7400	7		170
CC[C@H](C)[C@@H]1NC(=O)[C@@H]2CSSC[C@@H]3NC(=O)[C@H](C(C)C)NC(=O)[C@H](CC(C)C)NC(=O)[C@H](CC(N)=O)NC(=O)[C@@H]4CCCN4C(=O)[C@H](CCCNC(=N)N)NC(=O)[C@H](CSSC[C@H](NC(=O)[C@@H](N)CC(=O)O)C(=O)N[C@@H](CC(C)C)C(=O)NCC(=O)N[C@@H](C(C)C)C(=O)N[C@@H](CCSC)C(=O)N[C@@H](CCCNC(=N)N)C(=O)N[C@@H](CCCCN)C(=O)N2)NC(=O)[C@H](CSSC[C@@H](C(=O)N[C@@H](CCCCN)C(=O)N[C@@H](Cc2ccc(O)cc2)C(=O)N[C@H](C(=O)N[C@@H](Cc2ccccc2)C(N)=O)C(C)C)NC(=O)[C@H](Cc2c[nH]c4ccccc24)NC(=O)[C@H](CCCCN)NC(=O)[C@H](Cc2cnc[nH]2)NC(=O)[C@H]([C@@H](C)O)NC(=O)[C@H](CCCNC(=N)N)NC(=O)[C@H](CO)NC3=O)NC(=O)[C@H](CCCCN)NC(=O)[C@H](CC(=O)O)NC(=O)[C@H](CC(N)=O)NC(=O)[C@H](CC(=O)O)NC(=O)[C@@H]2CCCN2C1=O [SEQ ID NO: 272] (H-DCLGVMRKCIPDNDKCCRPNLVCSRTHKWCKYVF-NH2; disulfide 2-17, 9-23, 16-30)	1030	13200	18	710	
